Measured values from patent US9346821B2, “Heterocyclic carboxylic acid ester derivative” (AJINOMOTO CO., INC., priority 2011, dated 2016).
Counter-ions that a name gives are not always drawn.

Assays:
[1] = molecular target: recombinant human enteropeptidase (Homo sapiens (Human), UniProt P98073); test: Measurement of enteropeptidase inhibitory activity; type: biochemical; settings: for Ki: recombinant human enteropeptidase, Gly-Asp-Asp-Asp-Asp-Lys-β-Naphtylamide substrate, Dixon plot
Experimental: Measurement of Enteropeptidase Inhibitory Activity
Using a 96 well plate (#3915, Costar), a test compound (25 μL), 400 mM Tris-HCl buffer (pH 8.0, 25 μL) and 0.5 mg/mL fluorescence enzyme substrate (Gly-Asp-Asp-Asp-Asp-Lys-β-Naphtylamide, 25 μL) were mixed, and recombinant human enteropeptidase (R&D Systems, Inc., 25 μL) was added. Using a fluorescence plate reader fmax (Molecular Devices, Inc.), the reaction rate was measured from the time-course changes at excitation wavelength 320 nm and fluorescence wavelength 405 nm. The Ki value was calculated from the concentration of the test compound, reciprocal of reaction rate, and Km value of the enzyme substrate, and by using Dixon plot.

human trypsin = human trypsin (Homo sapiens, UniProt P07477); test: Measurement of trypsin inhibitory activity; type: biochemical; settings: for Ki: human trypsin, Boc-Phe-Ser-Arg-AMC substrate, Dixon plot
Experimental: Measurement of Trypsin Inhibitory Activity
Using a 96 well plate (#3915, Costar), a test compound (25 μL) was mixed with 20 μM fluorescence enzyme substrate (Boc-Phe-Ser-Arg-AMC, 50 μL) mixed with 200 mM Tris-HCl buffer (pH 8.0), and human trypsin (Sigma, 25 μL) was added. Using a fluorescence plate reader fmax (Molecular Devices, Inc.), the reaction rate was measured from the time-course changes at excitation wavelength 355 nm and fluorescence wavelength 460 nm. The Ki value was calculated from the concentration of the test compound, reciprocal of reaction rate, and Km value of the enzyme substrate, and by using Dixon plot.

KK-A^y/JCL mice = test: Evaluation of antidiabetic action (Experimental Example 4); type: in vivo; settings: mixed in feed for one week, versus control group
Source text: Evaluation of Antidiabetic Action KK-A^y/JCL mice (male, 5- to 7-week-old, CLEA Japan, Inc.) known to spontaneously develop obese type 2 diabetes were purchased and, after one week of preliminary rearing period, grouped (6 per group) with the body weight and non-fasting blood glucose levels as indices. The animals were individually housed in a polycarbonate cage and allowed to drink water freely from a watering bottle. […] CRF-1 alone was given to the control group. After one week of dosing period, the blood (6 μL) was drawn from the tail vein of the animals, and the blood glucose level was measured by ACCU-CHEK Aviva (Roche Diagnostics K.K.). A significant difference from the control group was detected by Dunnett's multiple comparison test or Student's t-test (significance level less than 5%).

Chain of recombinant human enteropeptidase (P98073 whole entry): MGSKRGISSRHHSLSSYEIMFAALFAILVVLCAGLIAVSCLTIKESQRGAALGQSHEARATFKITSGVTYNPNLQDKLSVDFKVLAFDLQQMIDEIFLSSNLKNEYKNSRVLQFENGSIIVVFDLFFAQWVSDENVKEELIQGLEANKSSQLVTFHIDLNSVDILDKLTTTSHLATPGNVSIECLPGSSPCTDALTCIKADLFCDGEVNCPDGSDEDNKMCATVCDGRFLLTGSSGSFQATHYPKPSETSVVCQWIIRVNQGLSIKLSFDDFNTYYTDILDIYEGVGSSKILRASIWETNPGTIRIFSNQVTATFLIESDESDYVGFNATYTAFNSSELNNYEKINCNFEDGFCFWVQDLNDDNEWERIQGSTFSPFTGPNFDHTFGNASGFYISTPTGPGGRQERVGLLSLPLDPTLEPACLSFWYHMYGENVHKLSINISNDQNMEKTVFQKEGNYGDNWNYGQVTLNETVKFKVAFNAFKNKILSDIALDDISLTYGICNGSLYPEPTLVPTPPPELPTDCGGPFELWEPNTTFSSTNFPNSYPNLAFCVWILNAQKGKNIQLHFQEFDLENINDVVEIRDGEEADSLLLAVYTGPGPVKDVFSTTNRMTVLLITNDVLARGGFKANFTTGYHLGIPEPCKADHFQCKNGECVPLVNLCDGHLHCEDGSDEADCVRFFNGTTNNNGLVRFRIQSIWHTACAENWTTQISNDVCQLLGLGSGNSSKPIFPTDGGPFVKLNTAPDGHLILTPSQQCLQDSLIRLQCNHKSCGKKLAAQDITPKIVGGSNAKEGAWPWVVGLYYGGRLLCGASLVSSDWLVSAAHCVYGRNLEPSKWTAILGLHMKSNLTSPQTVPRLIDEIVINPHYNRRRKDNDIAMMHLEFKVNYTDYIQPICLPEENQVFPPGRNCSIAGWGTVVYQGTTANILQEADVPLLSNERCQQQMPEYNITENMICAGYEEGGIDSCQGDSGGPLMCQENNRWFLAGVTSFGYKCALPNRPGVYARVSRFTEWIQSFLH

Row | Ki [1] | Ki (human trypsin) | enteropeptidase inhibitory activity (in words) ([1]; summary statement) | trypsin inhibitory activity (in words) (human trypsin; summary statement) | SMILES | hypoglycemic action (KK-A^y/JCL mice)
1 | 820 pM | 240 pM |  |  | N=C(N)c1ccc(OC(=O)c2ccc(CN3CCC[C@@H]3C(=O)N[C@@H](CS(=O)(=O)O)C(=O)O)o2)cc1 [A-5] | 
2 | 670 pM | 80 pM |  |  | N=C(N)c1ccc2cc(OC(=O)c3ccc(CN4CCC[C@@H]4C(=O)N[C@@H](CS(=O)(=O)O)C(=O)O)o3)ccc2c1 [A-6] | 
3 | 650 pM | 970 pM |  |  | N=C(N)c1ccc(OC(=O)c2ccc(CN3CCC[C@H]3C(=O)N[C@@H](CS(=O)(=O)O)C(=O)O)o2)cc1 [A-10] | 
4 | 560 pM | 450 pM |  |  | CC(C)[C@@H](C(=O)N[C@@H](CC(=O)O)C(=O)O)N(C)Cc1ccc(C(=O)Oc2ccc(C(=N)N)cc2)o1 [A-14, N—(N-{[5-(4-amidinophenoxycarbonyl)furan-2-yl]methyl}-N-methyl-L-valyl)-L-aspartic acid bis(trifluoroacetate)] | 
5 | 940 pM | 540 pM |  |  | CN(Cc1ccc(C(=O)Oc2ccc(C(=N)N)cc2)o1)C(=O)N[C@@H](CC(=O)O)C(=O)O [A-20] | 
6 | 380 pM | 840 pM |  |  | CC(C)N(Cc1ccc(C(=O)Oc2ccc(C(=N)N)cc2)o1)C(=O)N[C@@H](CC(=O)O)C(=O)O [A-21] | 
7 | 240 pM | 250 pM |  |  | N=C(N)c1ccc(OC(=O)c2ccc(CN3CCC[C@H]3C(=O)N[C@@H](CS(=O)(=O)O)C(=O)O)s2)c(F)c1 [B-10] | 
8 | 780 pM | 640 pM |  |  | C=CCN(CC(=O)O)C(=O)[C@@H]1CCCN1Cc1ccc(C(=O)Oc2ccc(C(=N)N)cc2F)s1 [B-11] | 
9 | 950 pM | 1140 pM |  |  | N=C(N)c1ccc(OC(=O)c2ccc(CN3CCC[C@@H]3C(=O)N[C@@H](CS(=O)(=O)O)C(=O)O)s2)cc1 [B-12] | 
10 | 430 pM | 290 pM |  |  | N=C(N)c1ccc(OC(=O)c2ccc(CN3CCC[C@@H]3C(=O)N[C@@H](CC(=O)O)C(=O)O)s2)c(F)c1 [B-13] | 
11 | 240 pM | 190 pM |  |  | N=C(N)c1ccc(OC(=O)c2ccc(CN3CCC[C@@H]3C(=O)N[C@@H](CS(=O)(=O)O)C(=O)O)s2)c(F)c1 [B-14] | 
12 | 690 pM | 520 pM |  |  | N=C(N)c1ccc(OC(=O)c2ccc(CN3CCC[C@@H]3C(=O)N[C@H](CC(=O)O)C(=O)O)s2)c(F)c1 [B-15] | 
13 | 440 pM | 920 pM |  |  | N=C(N)c1ccc(OC(=O)c2ccc(CN3CCCC[C@H]3C(=O)N[C@@H](CC(=O)O)C(=O)O)s2)c(F)c1 [B-18] | 
14 | 150 pM | 210 pM |  |  | N=C(N)c1ccc(OC(=O)c2ccc(CN3CSC[C@H]3C(=O)N[C@@H](CC(=O)O)C(=O)O)s2)c(F)c1 [B-20] | 
15 | 1000 pM | 380 pM |  |  | C=CCN(CC(=O)O)C(=O)[C@@H]1CSCN1Cc1ccc(C(=O)Oc2ccc(C(=N)N)cc2F)s1 [B-21] | 
16 | 750 pM | 440 pM |  |  | CC(C)[C@@H](C(=O)N[C@@H](CC(=O)O)C(=O)O)N(C)Cc1ccc(C(=O)Oc2ccc(C(=N)N)cc2F)s1 [B-23] | 

Row | Ki [1] | Ki (human trypsin) | enteropeptidase inhibitory activity (in words) ([1]; summary statement) | trypsin inhibitory activity (in words) (human trypsin; summary statement) | SMILES | hypoglycemic action (KK-A^y/JCL mice)
17 | 1000 pM | 380 pM |  |  | CC(C)[C@@H](C(=O)N[C@@H](CCC(=O)O)C(=O)O)N(C)Cc1ccc(C(=O)Oc2ccc(C(=N)N)cc2F)s1 [B-26] | 
18 | 780 pM | 680 pM |  |  | CC(C)[C@H](C(=O)N[C@@H](CC(=O)O)C(=O)O)N(C)Cc1ccc(C(=O)Oc2ccc(C(=N)N)cc2F)s1 [B-27, N—(N-{[5-(4-amidino-2-fluorophenoxycarbonyl)thiophen-2-yl]methyl}-N-methyl-D-valyl)-L-aspartic acid bis(trifluoroacetate)] | 
19 | 900 pM | 700 pM |  |  | CC(C)C[C@@H](C(=O)N[C@@H](CCC(=O)O)C(=O)O)N(C)Cc1ccc(C(=O)Oc2ccc(C(=N)N)cc2F)s1 [B-32] | 
20 | 530 pM | 810 pM |  |  | CC(C)C[C@@H](C(=O)N[C@@H](CC(=O)O)C(=O)O)N(C)Cc1ccc(C(=O)Oc2ccc(C(=N)N)cc2F)s1 [B-35] | 
21 | 610 pM | 890 pM |  |  | CC(C)C[C@@H](C(=O)N[C@H](CCC(=O)O)C(=O)O)N(C)Cc1ccc(C(=O)Oc2ccc(C(=N)N)cc2F)s1 [B-36] | 
22 | 1270 pM | 1570 pM |  |  | N=C(N)c1ccc(OC(=O)c2ccc(CNC3(C(=O)N[C@@H](CC(=O)O)C(=O)O)CC3)s2)c(F)c1 [B-37, N-(1-{[5-(4-amidino-2-fluorophenoxycarbonyl)thiophen-2-yl]methylamino}cyclopropanecarbonyl)-L-aspartic acid bis(trifluoroacetate)] | 
23 | 610 pM | 820 pM |  |  | N=C(N)c1ccc(OC(=O)c2ccc(Cn3cccc3C(=O)O)s2)c(F)c1 [B-42, N-{[5-(4-amidino-2-fluorophenoxycarbonyl)thiophen-2-yl]methyl}-1H-pyrrole-2-carboxylic acid trifluoroacetate] | 
24 | 690 pM | 560 pM |  |  | N=C(N)c1ccc(OC(=O)c2cc3c(s2)CN(CC(=O)O)CC3)c(F)c1 [B-43, {2-[(4-amidino-2-fluorophenoxy)carbonyl]-4,5-dihydrothieno[2,3-c]pyridin-6(7H)-yl}acetic acid bis(trifluoroacetate)] | 
25 | 620 pM | 710 pM |  |  | C=CCN(C(=O)CN1CCc2cc(C(=O)Oc3ccc(C(=N)N)cc3F)sc2C1)[C@@H](CCC(=O)O)C(=O)O [B-45, N-allyl-N-({2-[(4-amidino-2-fluorophenoxy)carbonyl]-4,5-dihydrothieno[2,3-c]pyridin-6(7H)-yl}acetyl)-L-glutamic acid bis(trifluoroacetate)] | 
26 | 380 pM | 870 pM |  |  | CN(Cc1ccc(C(=O)Oc2ccc(C(=N)N)cc2F)s1)C(=O)N[C@@H](CC(=O)O)C(=O)O [B-46] | 
27 | 330 pM | 690 pM |  |  | CC(C)N(Cc1ccc(C(=O)Oc2ccc(C(=N)N)cc2F)s1)C(=O)N[C@@H](CC(=O)O)C(=O)O [B-47] | 
28 | 200 pM | 240 pM |  |  | N=C(N)c1ccc(OC(=O)c2cc3c(s2)CN(C(=O)N[C@@H](CC(=O)O)C(=O)O)CC3)c(F)c1 [B-55, N-{[2-(4-amidino-2-fluorophenoxycarbonyl)-4,5,6,7-tetrahydrothieno[2,3-c]pyridin-6-yl]carbonyl}-L-aspartic acid trifluoroacetate] | 
29 | 770 pM | 430 pM |  |  | C=CCN(CC(=O)N[C@@H](CC(=O)O)C(=O)O)C(=O)CCc1ccc(C(=O)Oc2ccc(C(=N)N)cc2F)s1 [B-56, N—[N-allyl-N-(3-{5-[(4-amidino-2-fluorophenoxy)carbonyl]thiophen-2-yl}propanoyl)glycyl]-L-aspartic acid trifluoroacetate] | 
30 | 980 pM | 3310 pM |  |  | CN(Cc1ccc(C(=O)Oc2ccc(C(=N)N)cc2F)s1)[C@H](Cc1ccccc1)C(=O)N[C@H](CC(=O)O)C(=O)O [B-59, N—(N-{5-[(4-amidino-2-fluorophenoxy)carbonyl]thiophen-2-yl}methyl-N-methyl-D-phenylalanyl)-D-aspartic acid bis(trifluoroacetate)] | 
31 | 530 pM | 420 pM |  |  | N=C(N)c1ccc(OC(=O)c2ccc(CN3CCC[C@@H]3C(=O)N(CCC(=O)O)CC(=O)O)s2)c(F)c1 [B-60, N-{5-[(4-amidino-2-fluorophenoxy)carbonyl]thiophen-2-yl}methyl-D-proline N-(2-carboxyethyl)-N-carboxymethylamide bis(trifluoroacetate)] | 
32 | 1360 pM |  | superior | superior | N=C(N)c1ccc(OC(=O)c2ccc(CCC(=O)N[C@@H](CC(=O)O)C(=O)O)s2)c(F)c1.O=C(O)C(F)(F)F [reference compound A, N-{3-[5-(4-amidino-2-fluorophenoxycarbonyl)thiophen-2-yl]propanoyl}-L-aspartic acid trifluoroacetate, reference compound] | significant hypoglycemic action
